According to ChEMBL document CHEMBL4814012, “Synthesis and structure-activity relationships of 5-phenyloxazole-2-carboxylic acid derivatives as novel inhibitors of tubulin polymerization” (Bioorg Med Chem Lett, 2021):

Columns and labels:
[1] = tested on: HeLa; assay: Cytotoxicity against human HeLa cells assessed as reduction in cell growth by CCK8 assay; assay type: functional, cell-based
[2] = tested on: A549; assay: Cytotoxicity against human A549 cells assessed as reduction in cell growth by CCK8 assay; assay type: functional, cell-based
[3] = tested on: HepG2; assay: Cytotoxicity against human HepG2 cells assessed as reduction in cell growth by CCK8 assay; assay type: functional, cell-based
[4] = tested on: BEAS-2B; assay: Cytotoxicity against human BEAS-2B cells assessed as reduction in cell growth by CCK8 assay; assay type: cell-based
[5] = Selectivity ratio of IC50 for human BEAS-2B cells to IC50 for human A549 cells; assay type: toxicity; conditions: BEAS-2B cells versus A549 cells, read-out: Ratio IC50
[6] = molecular target: T1, Tubulin (Homo sapiens) (UniProt P68371+Q9H4B7+P0DPH7+P68366+Q13509+Q71U36+P04350+Q3ZCM7+P07437+P68363+Q9BQE3+Q6PEY2+Q13885+Q9BVA1+Q9BUF5); assay: Inhibition of tubulin polymerization (unknown origin) at 40 uM measured every 30 secs for 90 mins relative to control; assay type: protein-complex assay
[7] = molecular target: T1, Tubulin (Homo sapiens); assay: (§1) Inhibition of tubulin polymerization (unknown origin) measured every 30 secs for 90 mins; assay type: protein-complex assay
[8] = molecular target: Tubulin; assay: as §1; assay type: protein-complex assay, Homo sapiens
[9] = tested on: A549; assay: Induction of cell cycle arrest in human A549 cells assessed as accumulation at G2/M phase at 1 uM after 24 hrs by flow cytometric analysis (reference value: 14.08%); assay type: functional
[10] = tested on: A549; assay: Induction of cell cycle arrest in human A549 cells assessed as accumulation at G1 phase at 1 uM after 24 hrs by flow cytometric analysis (reference value: 70.48%); assay type: functional
[11] = tested on: A549; assay: Induction of cell cycle arrest in human A549 cells assessed as accumulation at S phase at 1 uM after 24 hrs by flow cytometric analysis (reference value: 15.44%); assay type: functional

| SMILES | IC50 [1] [µM] | IC50 [2] [µM] | IC50 [3] [µM] | further results |
| --- | --- | --- | --- | --- |
| COc1ccc(NC(=O)c2ncc(-c3ccccc3)o2)cc1 | > 30 | > 30 | > 30 |  |
| O=C(Nc1ccc(O)cc1)c1ncc(-c2ccccc2)o1 | 0.78 | 1.08 | 1.27 | IC50 [4]: 3.36 µM; selectivity ratio [5]: 3.11; inhibition [6]: 91%; inhibition [7]: Dose-Dependent Effect; IC50 [8]: 16.7 µM; Activity [9]: 85.81%; Activity [10]: 1.14%; Activity [11]: 13.05% |
| COc1cc(-c2cnc(C(=O)Nc3ccc(F)cc3)o2)cc(OC)c1OC | > 30 | > 30 | > 30 |  |
| COc1cc(-c2cnc(C(=O)Nc3ccccc3)o2)cc(OC)c1OC | 27.3 | > 30 | > 30 |  |
| O=C(Nc1ccc(Cl)cc1)c1ncc(-c2ccccc2)o1 | > 30 | > 30 | > 30 |  |
| COc1ccc(C(=O)c2ncc(-c3ccc(OC)cc3)o2)cc1 | > 30 | > 30 | > 30 |  |
| CCN(CC)c1ccc(NC(=O)c2ncc(-c3ccccc3)o2)cc1 | > 30 | > 30 | > 30 |  |
| COc1ccc(-c2cnc(C(=O)Nc3ccc(O)cc3)o2)cc1F | 1.12 | 1.2 | 1.81 | IC50 [4]: 2.6 µM; selectivity ratio [5]: 2.17; inhibition [6]: 46%; IC50 [8]: > 40 µM |
| COc1cc(-c2cnc(C(=O)c3ccccc3)o2)cc(OC)c1OC | > 30 | > 30 | > 30 |  |
| Cc1ccc(NC(=O)c2ncc(-c3ccccc3)o2)cc1 | > 30 | > 30 | > 30 |  |
| COc1ccc(-c2cnc(C(=O)c3ccccc3)o2)cc1 | > 30 | > 30 | > 30 |  |
| COc1cc(C(=O)c2ncc(-c3ccccc3)o2)cc(OC)c1OC | > 30 | > 30 | > 30 |  |
| O=C(c1ncc(-c2ccccc2)o1)N1CCN(c2ccccc2)CC1 | > 30 | > 30 | > 30 |  |
| COc1cc(-c2cnc(C(=O)Nc3ccc([N+](=O)[O-])cc3)o2)cc(OC)c1OC | > 30 | > 30 | > 30 |  |
| O=C(c1ccc(O)cc1)c1ncc(-c2ccccc2)o1 | > 30 | > 30 | > 30 |  |
| COc1cc2c(c(OC)c1OC)-c1ccc(OC)c(=O)cc1[C@@H](NC(C)=O)CC2 [COLCHICINE] |  | 0.053 |  | IC50 [4]: 0.016 µM |
| COc1cccc(-c2cnc(C(=O)c3ccccc3)o2)c1 | > 30 | > 30 | > 30 |  |
| CN(C)c1ccc(NC(=O)c2ncc(-c3ccccc3)o2)cc1 | > 30 | > 30 | > 30 |  |
| O=C(Nc1ccc(O)cc1)c1ncc(-c2ccc(F)cc2)o1 | > 30 | > 30 | > 30 |  |
| O=C(Nc1cccc(O)c1)c1ncc(-c2ccccc2)o1 | > 30 | > 30 | > 30 |  |
| COc1ccc(NC(=O)c2ncc(-c3cc(OC)c(OC)c(OC)c3)o2)cc1 | 20.5 | 25.8 | > 30 |  |
| COc1ccc(-c2cnc(C(=O)Nc3ccc(O)cc3)o2)cc1 | 1.44 | 1.93 | 2.76 | IC50 [4]: 4.58 µM; selectivity ratio [5]: 2.37; inhibition [6]: 27%; IC50 [8]: > 40 µM |
| O=C(c1ncc(-c2ccccc2)o1)N1CCN(c2ccc(Cl)cc2)CC1 | > 30 | > 30 | > 30 |  |
| COc1cc(-c2cnc(C(=O)Nc3ccc(O)cc3)o2)cc(OC)c1OC | > 30 | > 30 | > 30 |  |
| COc1ccc(NC(=O)c2ncc(-c3ccc(O)cc3)o2)cc1 | 9.67 | 11.3 | 17.3 |  |
